For one assay, the target named is T1, EHMT1 (Homo sapiens, UniProt Q9H9B1).
T1 sequence (Q9H9B1 1-1298): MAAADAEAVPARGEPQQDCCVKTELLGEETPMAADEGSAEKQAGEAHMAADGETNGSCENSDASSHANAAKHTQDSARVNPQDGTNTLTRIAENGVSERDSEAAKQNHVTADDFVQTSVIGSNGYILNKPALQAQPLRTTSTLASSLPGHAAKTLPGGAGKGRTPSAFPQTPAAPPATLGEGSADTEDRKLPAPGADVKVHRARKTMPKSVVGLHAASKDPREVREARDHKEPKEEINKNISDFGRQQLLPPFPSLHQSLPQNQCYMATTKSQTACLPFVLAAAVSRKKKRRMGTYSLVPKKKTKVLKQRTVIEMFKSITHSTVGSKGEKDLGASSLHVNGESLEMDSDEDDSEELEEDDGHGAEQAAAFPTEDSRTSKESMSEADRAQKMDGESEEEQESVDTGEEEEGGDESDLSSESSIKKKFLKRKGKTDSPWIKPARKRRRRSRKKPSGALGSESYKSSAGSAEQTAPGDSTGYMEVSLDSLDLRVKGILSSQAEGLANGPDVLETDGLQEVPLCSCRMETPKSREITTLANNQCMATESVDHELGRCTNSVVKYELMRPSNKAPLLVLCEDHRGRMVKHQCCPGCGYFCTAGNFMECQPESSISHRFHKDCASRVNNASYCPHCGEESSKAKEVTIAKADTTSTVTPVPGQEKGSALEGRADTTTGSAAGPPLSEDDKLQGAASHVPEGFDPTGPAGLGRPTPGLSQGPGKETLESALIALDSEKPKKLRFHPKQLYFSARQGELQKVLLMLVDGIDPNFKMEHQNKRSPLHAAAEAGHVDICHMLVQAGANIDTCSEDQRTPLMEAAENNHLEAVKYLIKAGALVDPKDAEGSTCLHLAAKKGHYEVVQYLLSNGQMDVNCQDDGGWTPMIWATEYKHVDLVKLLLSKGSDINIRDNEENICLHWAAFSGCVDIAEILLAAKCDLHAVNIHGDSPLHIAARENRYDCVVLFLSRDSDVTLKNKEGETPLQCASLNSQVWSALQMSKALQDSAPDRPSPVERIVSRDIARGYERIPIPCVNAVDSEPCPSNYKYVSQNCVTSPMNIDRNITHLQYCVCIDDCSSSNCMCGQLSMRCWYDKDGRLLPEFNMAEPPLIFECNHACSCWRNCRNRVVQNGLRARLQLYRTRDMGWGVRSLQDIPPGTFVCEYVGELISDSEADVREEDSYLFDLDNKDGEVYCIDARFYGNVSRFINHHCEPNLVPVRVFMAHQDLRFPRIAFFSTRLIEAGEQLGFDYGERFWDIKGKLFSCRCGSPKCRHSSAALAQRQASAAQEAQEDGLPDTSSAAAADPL
Description: EHMT1 PEP (EHMT1 peptide enzyme assay). The class given is biochemical. As to conditions: peptide substrate enzyme assay.

For assay [1], the system named is H3K9me2 in MDA-MB-231 cells. Description: MDA-MB-231 H3K9me2 in-cell western assay. It is filed as cell-based. Particulars: Homo sapiens, read-out: EHMT2 ICW (IC50 μM). An excerpt:
MDA-MB-231 cell line was purchased from ATCC (Manassas, Va., USA). RPMI/Glutamax medium, Penicillin-Streptomycin, Heat Inactivated Fetal Bovine Serum, and D-PBS were purchased from Life Technologies (Grand Island, N.Y., USA). Odyssey blocking buffer, 800CW goat anti-mouse IgG (H+L) antibody, and Licor Odyssey Infrared Scanner were purchased from Licor Biosciences, Lincoln, Nebr., USA. H3K9me2 mouse monoclonal antibody (Cat #1220) was purchased from Abcam (Cambridge, Mass., USA). 16% Paraformaldehyde was purchased from Electron Microscopy Sciences, Hatfield, Pa., USA). MDA-MB-231 cells were maintained in complete growth medium (RPMI supplemented with 10% v/v heat inactivated fetal bovine serum) and cultured at 37° C. under 5% CO2. UNC0638 was purchased from Sigma-Aldrich (St. Louis, Mo., USA).
General Procedure for MDA-MB-231 HEK9me2 In-Cell Western Assay.
Compound (100 nL) was added directly to 384-well cell plate. MDA-MB-231 cells (ATCC) were seeded in assay medium (RPMI/Glutamax supplemented with 10% v/v heat inactivated fetal bovine serum and 1% Penicillin/Streptomycin, Life Technologies) at a concentration of 3,000 cells per well to a Poly-D-Lysine coated 384-well cell culture plate with 50 μL per well. Plates were incubated at 37° C., 5% CO2 for 48 hours (BD Biosciences 356697). Plates were incubated at room temperature for 30 minutes and then incubated at 37° C., 5% CO2 for additional 48 hours. After the incubation, 50 μL per well of 8% paraformaldehyde (Electron Microscopy Sciences) in PBS was added to the plates and incubated at room temperature for 20 minutes. Plates were transferred to a Biotek 406 plate washer and washed 2 times with 100 μL per well of wash buffer (1×PBS containing 0.3% Triton X-100 (v/v)). Next, 60 μL per well of Odyssey blocking buffer (Licor Biosciences) was added to each plate and incubated for 1 hour at room temperature. Blocking buffer was removed and 20 μL of monoclonal primary antibody α-H3K9me2 (Abcam) diluted 1:800 in Odyssey buffer with 0.1% Tween 20 (v/v) were added and plates were incubated overnight (16 hours) at 4° C. Plates were washed 5 times with 100 μL per well of wash buffer. Next 20 μL per well of secondary antibody was added (1:500 800CW […] anti-mouse IgG (H+L) antibody (Licor Biosciences), 1:1000 DRAQ5 (Cell Signaling Technology) in Odyssey buffer with 0.1% Tween 20 (v/v)) and incubated for 1 hour at room temperature. The plates were washed 5 times with 100 μL per well wash buffer then 2 times with 100 μL per well of water. Plates were allowed to dry at room temperature then imaged on a Licor Odyssey Infrared Scanner (Licor Biosciences) which measured integrated intensity at 700 nm and 800 nm wavelengths. Both 700 and 800 channels were scanned.
% Inhibition Calculation.
First, the ratio for each well was determined by
Each plate included fourteen control wells of DMSO only treatment (Minimum Inhibition) as well as fourteen control wells (background wells) for maximum inhibition treated with control compound UNC0638 (Background wells).
The average of the ratio values for each well was calculated and used to determine the percent inhibition for each test well in the plate. Control compound was serially diluted three-fold in DMSO for a total of 10 test concentrations beginning at 1 μM. Percent inhibition was calculated as: […]
IC50 curves were generated using triplicate wells per concentration of compound. The IC50 is the concentration of compound at which measured methylation is inhibited by 50% as interpolated from the dose response curves. IC50 values were calculated using a non-linear regression (variable slope-four parameter fit model) with by the following formula
where Top is fixed at 100% and Bottom is fixed to 0%, [I]=concentration of inhibitor, IC50=half maximal inhibitory concentration and n=Hill Slope.

Counter-ions that a name gives are not always drawn. Where only a bound is given, the exact number is not on record here.

Consider `CNc1cc(C)nc(Nc2ccc(OC)c(-c3cc(C4CC4)on3)c2)n1` [Compound 13], for which the IC50 lay within 0.1 to 1 µM against EHMT1 and 1 to 10 µM in assay [1].
Taken in the same sequence, the figures for `CNc1cc(C)nc(Nc2ccc(OC)c(-n3cc(C4CC4)cn3)c2)n1` [Compound 14, 2-N-[3-(4-cyclopropyl-1H-pyrazol-1-yl)-4-methoxyphenyl]-4-N,6-dimethylpyrimidine-2,4-diamine] were 0.1 to 1 µM and 1 to 10 µM.
Taken in the same sequence, the figures for `CNc1cc(C)nc(Nc2ccc(OC)c(-n3cccn3)c2)n1` [Compound 15, 2-N-[4-methoxy-3-(1H-pyrazol-1-yl)phenyl]-4-N,6-dimethylpyrimidine-2,4-diamine; trifluoroacetic acid] were over 10 µM and over 10 µM.
Taken in the same sequence, the figures for `CNc1cc(C)nc(Nc2cnc(OC)c(-n3ncc4c3CCNC4)c2)n1` [Compound 19] were 1 to 10 µM and 1 to 10 µM.
As to `CNc1cc(C)nc(Nc2ccc(OC)c(-c3nnc4n3CCNC4)c2)n1` [Compound 21], the IC50 (on EHMT1; in assay [1]) was over 10 µM each time.
`CNc1cc(C)nc(Nc2ccc(OC)c(-n3cc4c(n3)CNCC4)c2)n1` [Compound 22, 2-N-(4-methoxy-3-[2H,4H,5H,6H,7H-pyrazolo[3,4-c]pyridin-2-yl]phenyl)-4-N,6-dimethylpyrimidine-2,4-diamine hydrochloride]: the IC50 against EHMT1 is 1 to 10 µM; in assay [1] it was over 10 µM.
The matching figures for `CNc1cc(C)nc(Nc2ccc(OC)c(-n3cc(CN)cn3)c2)n1` [Compound 23, 2-N-[3-[4-(aminomethyl)-1H-pyrazol-1-yl]-4-methoxyphenyl]-4-N,6-dimethylpyrimidine-2,4-diamine; trifluoroacetic acid]: under 0.1 µM and 1 to 10 µM.
Consider `CNc1cc(C)nc(Nc2ccc(OC)c(-n3nccc3CN)c2)n1` [Compound 24], for which the IC50 on EHMT1 was 1 to 10 µM; in assay [1] it was over 10 µM.
Taken in the same sequence, the figures for `CNc1cc(C)nc(Nc2ccc(OC)c(-n3ncc4c3CCCC4)c2)n1` [Compound 26, 2-N-[4-methoxy-3-(4,5,6,7-tetrahydro-1H-indazol-1-yl)phenyl]-4-N,6-dimethylpyrimidine-2,4-diamine trifluoroacetic acid] were 1 to 10 µM and over 10 µM.
Taken in the same sequence, the figures for `CNc1nc(Nc2ccc(OC)c(-n3cc4c(n3)CCNC4)c2)nc(C)c1F` [Compound 27, 5-fluoro-2-N-(4-methoxy-3-[2H,4H,5H,6H,7H-pyrazolo[4,3-c]pyridin-2-yl]phenyl)-4-N,6-dimethylpyrimidine-2,4-diamine trifluoroacetic acid] were 0.1 to 1 µM and 1 to 10 µM.
As to `CNc1nc(Nc2ccc(OC)c(-n3ncc4c3CCNC4)c2)nc(C)c1F` [Compound 28, 5-fluoro-2-N-(4-methoxy-3-[1H,4H,5H,6H,7H-pyrazolo[4,3-c]pyridin-1-yl]phenyl)-4-N,6-dimethylpyrimidine-2,4-diamine trifluoroacetic acid], the IC50 (on EHMT1; in assay [1]) was 1 to 10 µM each time.
Consider `CNc1cc(C)nc(Nc2ccc(OC)c(-c3c(C)nc4n3CCNC4)c2)n1` [Compound 30], for which the concentration for half-maximal inhibition (IC50) (on EHMT1; in assay [1]) was over 10 µM in each case.
Consider `CNc1cc(C)nc(Nc2ccc(OC)c(-c3nnc4n3CCN(C)C4)c2)n1` [Compound 31], for which the IC50 (on EHMT1; in assay [1]) was over 10 µM in each case.
For `CNc1cc(C)nc(Nc2ccc(OC)c(-n3ncc4c3CCCN4)c2)n1` [Compound 32], the concentration for half-maximal inhibition (IC50) (against EHMT1; in assay [1]) was over 10 µM each time.
Regarding `CNc1cc(C)nc(Nc2ccc(OC)c(-c3cccc4[nH]ccc34)c2)n1` [Compound 33, 2-N-[3-(1H-indol-4-yl)-4-methoxyphenyl]-4-N,6-dimethylpyrimidine-2,4-diamine hydrochloride], the IC50 (against EHMT1; in assay [1]) was over 10 µM each time.
On to `CNc1cc(C)nc(Nc2ccc(OC)c(-n3ncc4cnccc43)c2)n1` [Compound 35, 2-N-(4-methoxy-3-[1H-pyrazolo[4,3-c]pyridin-1-yl]phenyl)-4-N,6-dimethylpyrimidine-2,4-diamine; trifluoroacetic acid], for which the IC50 (on EHMT1; in assay [1]) was 1 to 10 µM throughout.
`CNc1cc(C)nc(Nc2ccc(OC)c(-n3ncc4ccncc43)c2)n1` [Compound 36]: the values for the IC50 (at EHMT1; in assay [1]) were 1 to 10 µM and over 10 µM, respectively.
`CNc1cc(C)nc(Nc2ccc(OC)c(-c3cccc4[nH]ncc34)c2)n1` [Compound 37, 2-N-[3-(1H-indazol-4-yl)-4-methoxyphenyl]-4-N,6-dimethylpyrimidine-2,4-diamine; trifluoroacetic acid]: the IC50 (on EHMT1; in assay [1]) was over 10 µM throughout.
As to `CNc1cc(C)nc(Nc2ccc(OC)c(-c3nc4cnccn4n3)c2)n1` [Compound 38], the IC50 was 1 to 10 µM at EHMT1 and over 10 µM in assay [1].
Taken in the same sequence, the figures for `CNc1cc(C)nc(Nc2ccc(OC)c(-c3c(C)nc4cnccn34)c2)n1` [Compound 39] were over 10 µM and over 10 µM.
Taken in the same sequence, the figures for `CCc1ccc(Nc2nc(C)cc(NC)n2)cc1C(=O)Nc1cccnc1` [Compound 244] were over 10 µM and over 10 µM.
Taken in the same sequence, the figures for `CNc1cc(C)nc(Nc2ccc(Cl)c(C(=O)Nc3ccnnc3)c2)n1` [Compound 245] were over 10 µM and over 10 µM.
Consider `CNc1cc(C)nc(Nc2ccc(Cl)c(C(=O)Nc3nccs3)c2)n1` [Compound 246], for which the IC50 on EHMT1 fell in the range of 0.1 to 1 µM; in assay [1], 1 to 10 µM.
Taken in the same sequence, the figures for `Cc1cc(NC2CCNCC2)ncc1-c1cc2[nH]ccc2cn1` [Compound 247] were 1 to 10 µM and over 10 µM.

These data come from patent US20220235065A1 (Epizyme, Inc., priority 2016, published 2022).
